The test system of series [1] is Type II diabetic male patients. Put plainly: Microalbuminuria in Type II diabetic patients (FIG. 1). Format: in vivo, human. The settings on record: 50 mg daily for 30 days (n=20), relative to baseline or placebo.
Another series can be described thus: clinical. The settings on record: male, human, in vivo. Here is the method: (§1) Both single and multiple dose clinical studies were conducted with an oral solution or suspension ranging from single doses of 0.3 to 400 mg and multiple doses of 30 to 200 mg.
(§2) For toxicokinetic studies, this method was validated over a concentration range of 10 to 1000 ng/mL for a 50 μL plasma sample. Radiometric methods were used to measure [^14C]

Series [2] deals with Salmonella typhimurium (Strains TA-1535, TA-1537) and Escherichia coli (Strain WP2uvrA). Put plainly: Microbial reverse mutation (mutagenicity). The following applies: (±S9). The arrangement: dose or concentration left out as unconfirmed. The class given is cell-based. Here is the method:
(§3) Study designs and dose selection were consistent with International Conference on Harmonization and Organization for Economic Cooperation and Development guidelines for mutagenicity and clastogenicity assays. All in vitro tests were conducted with and without exogenous metabolic activation using concentrations up to those limited by cytotoxicity or insolubility.

Series [3] in a line: in vitro. The settings on record: rat, plasma.
The next series is described as follows: Pharmacokinetics in dogs. Format: in vivo, dog. Here is the method:
as §2

Series [4] has as its system rats. Put plainly: Renal - rat, fluid and electrolyte excretion. The following applies: oral, 3, 30, 300 mg/kg. Format: in vivo.
Excerpt: (§5) For in vivo studies, the oral route of exposure was used. Rats given diazepam or frusemide served as positive controls in the locomotor activity and fluid/electrolyte excretion studies, respectively. […] Positive controls or animals given positive controls were not assessed concurrently in the remaining studies as these studies utilized well-characterized models to evaluate safety parameters.
In series [5] the target is PDE6 enzyme (human retinal cone) (Homo sapiens, UniProt P51160). In words: PDE6 enzyme (human retinal cone) inhibition. The class given is biochemical.
Sequence of PDE6 enzyme (human retinal cone) (P51160 whole entry): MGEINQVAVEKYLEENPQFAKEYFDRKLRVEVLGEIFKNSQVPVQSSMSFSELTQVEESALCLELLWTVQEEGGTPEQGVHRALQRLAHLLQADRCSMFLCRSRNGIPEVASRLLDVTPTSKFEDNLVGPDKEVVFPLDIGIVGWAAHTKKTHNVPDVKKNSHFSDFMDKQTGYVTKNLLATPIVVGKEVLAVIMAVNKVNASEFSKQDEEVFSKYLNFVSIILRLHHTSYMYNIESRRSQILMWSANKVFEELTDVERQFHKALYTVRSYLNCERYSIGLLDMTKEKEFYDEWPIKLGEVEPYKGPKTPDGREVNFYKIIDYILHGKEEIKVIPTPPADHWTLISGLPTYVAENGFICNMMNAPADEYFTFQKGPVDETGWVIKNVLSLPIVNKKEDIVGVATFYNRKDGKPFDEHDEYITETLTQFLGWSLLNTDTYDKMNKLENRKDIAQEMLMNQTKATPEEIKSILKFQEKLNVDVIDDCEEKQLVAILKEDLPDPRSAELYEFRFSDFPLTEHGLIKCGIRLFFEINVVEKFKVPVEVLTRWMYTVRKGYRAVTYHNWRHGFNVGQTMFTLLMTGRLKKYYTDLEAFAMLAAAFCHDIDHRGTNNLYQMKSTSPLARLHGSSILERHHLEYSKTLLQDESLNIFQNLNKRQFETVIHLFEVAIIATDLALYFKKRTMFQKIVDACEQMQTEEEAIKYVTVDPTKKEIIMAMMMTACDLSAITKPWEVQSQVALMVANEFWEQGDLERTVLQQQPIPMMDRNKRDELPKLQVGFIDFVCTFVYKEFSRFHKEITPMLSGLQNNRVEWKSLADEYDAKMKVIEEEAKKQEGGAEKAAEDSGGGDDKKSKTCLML
Another series concerns the target human PDE11 (Homo sapiens, UniProt Q9HCR9). Put plainly: PDE11 enzyme (human) inhibition. Format: biochemical.
Series [6] concerns the target T1, PDE6 enzyme (human retinal rod) (Homo sapiens, UniProt P16499+P35913).
T1 construct: against human retinal cone and rod; from tissue; host or cells: human retina (rod)
In words: PDE6 enzyme (human retinal rod) inhibition. Format: biochemical.

The next series addresses T2, CYP2D6 (Homo sapiens, UniProt P10635).
T2 construct: was determined in human liver microsomes; from tissue; host or cells: human liver microsomes
In words: CYP inhibition in human liver microsomes. The class given is in vitro ADME. For orientation: Microsomes from liver hold many membrane-bound enzymes, among them those of drug oxidation.

The target of the next series is CYP1A2 (Homo sapiens, UniProt P05177). In words: CYP inhibition in human liver microsomes. The class given is in vitro ADME.
Sequence of CYP1A2 (P05177 whole entry): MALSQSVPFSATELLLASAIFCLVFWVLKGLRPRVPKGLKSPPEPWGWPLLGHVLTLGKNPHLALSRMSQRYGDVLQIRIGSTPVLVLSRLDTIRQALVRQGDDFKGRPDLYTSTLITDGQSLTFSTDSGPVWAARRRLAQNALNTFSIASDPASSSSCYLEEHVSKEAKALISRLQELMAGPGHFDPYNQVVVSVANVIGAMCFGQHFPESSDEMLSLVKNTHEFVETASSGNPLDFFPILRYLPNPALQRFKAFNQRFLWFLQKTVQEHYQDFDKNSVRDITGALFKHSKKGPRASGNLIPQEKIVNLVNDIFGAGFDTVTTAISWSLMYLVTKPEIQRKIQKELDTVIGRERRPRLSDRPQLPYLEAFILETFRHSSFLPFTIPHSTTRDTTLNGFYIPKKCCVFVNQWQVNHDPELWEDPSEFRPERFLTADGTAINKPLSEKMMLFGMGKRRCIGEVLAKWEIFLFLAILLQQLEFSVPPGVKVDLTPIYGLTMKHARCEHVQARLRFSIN
The next series is described as follows: Pharmacokinetics in rats. The class given is in vivo, rat. The procedure: as §2
The test system of the next series is dogs. In words: Cardiovascular - conscious dogs, hemodynamic and ECG parameters. The class given is in vivo, dog. An excerpt:
(§4) For in vivo studies, the oral route of exposure was used. Rats given diazepam or frusemide served as positive controls in the locomotor activity and fluid/electrolyte excretion studies, respectively. Dofetilide was used for assay validity or a positive control in the dofetilide and hERG assays, respectively. Positive controls or animals given positive controls were not assessed concurrently in the remaining studies as these studies utilized well-characterized models to evaluate safety parameters.
These cardiovascular effects are consistent with cGMP elevation in vascular smooth muscle, resulting from inhibition of cGMP-specific PDE5.

Another series concerns dog Purkinje fiber. Put plainly: Dog Purkinje fiber assay. The following applies: up to 10 μM (4.77 μg/mL).
Excerpt: as §4

Series [7] is described as follows: Excretion of total radioactivity in dogs. The class given is in vivo, dog. Here is the method: as §2
The subject of series [8] is Human Peripheral Lymphocytes. Put plainly: In vitro cytogenetic assay, structural chromosome aberration. Format: cell-based. The settings on record: 100, 350, 500 μg/mL (3 h − S9); 100, 200, 350 μg/mL (3 h + S9); 12.5, 50, 100 μg/mL (24 h − S9). Here is the method: as §3
A short description of series [9]: Excretion of total radioactivity in rats. The class given is in vivo, rat. The procedure:
as §2

For the next series, the target named is T3, rat PDE5 (Rattus norvegicus, UniProt O54735).
T3 construct: rat and dog platelet-derived PDE5; from tissue; host or cells: rat platelets
Put plainly: PDE5 enzyme (rat platelet) inhibition. The following applies: rat platelet-derived enzyme. Format: biochemical.

The subject of the next series is healthy male volunteers. In words: Human tolerability and safety, single and multiple dose clinical studies. Here is the method: as §1
Series [10] in a line: in vitro. The settings on record: human, plasma.
A further series has as its target T4, CYP2C9 (Homo sapiens, UniProt P11712).
T4 construct: was determined in human liver microsomes; from tissue; host or cells: human liver microsomes
In words: CYP inhibition in human liver microsomes. The class given is in vitro ADME.

Another series relates to mice. The settings on record: mouse, in vivo, 14 days.
The subject of series [11] is rats. Put plainly: Pulmonary function - rat, respiratory parameters. Format: in vivo. The settings on record: oral, up to 300 mg/kg.
Excerpt: as §5
The test system of the next series is Rat Bone Marrow. Put plainly: Micronucleus assay in rat bone marrow. The class given is in vivo. The following applies: 100, 300, 600 mg/kg/day. The procedure: as §3
For the next series, the target named is T5, CYP2C19 (Homo sapiens, UniProt P33261).
T5 construct: was determined in human liver microsomes; from tissue; host or cells: human liver microsomes
T5 sequence (P33261 whole entry): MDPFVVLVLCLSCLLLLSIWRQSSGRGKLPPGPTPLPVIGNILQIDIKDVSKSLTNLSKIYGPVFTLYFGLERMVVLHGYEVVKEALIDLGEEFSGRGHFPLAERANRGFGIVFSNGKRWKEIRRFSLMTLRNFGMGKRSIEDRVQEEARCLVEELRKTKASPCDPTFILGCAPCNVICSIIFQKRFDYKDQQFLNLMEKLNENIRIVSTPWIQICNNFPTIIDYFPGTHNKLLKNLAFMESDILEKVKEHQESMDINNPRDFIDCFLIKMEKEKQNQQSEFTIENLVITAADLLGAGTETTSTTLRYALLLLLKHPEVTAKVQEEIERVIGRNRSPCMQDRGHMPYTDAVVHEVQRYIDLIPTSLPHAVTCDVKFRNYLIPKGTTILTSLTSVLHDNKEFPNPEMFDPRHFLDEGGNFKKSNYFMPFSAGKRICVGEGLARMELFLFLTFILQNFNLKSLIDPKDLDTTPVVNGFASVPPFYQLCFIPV
Put plainly: CYP inhibition in human liver microsomes. Format: in vitro ADME.

Series [12] deals with isolated rat aortic rings. In words: Aortic ring relaxation (rat). The following applies: read-out: Aortic ring vasorelaxation EC50.
Series [13] is described as follows: in vitro. The following applies: rabbit, plasma.
Series [14] in a line: in vitro. The following applies: dog, plasma.
In another series the target is CYP3A4 (Homo sapiens, UniProt P08684). In words: CYP inhibition in human liver microsomes. Format: in vitro ADME. The following applies: probe midazolam, testosterone and felodipine.
Sequence of CYP3A4 (P08684 whole entry): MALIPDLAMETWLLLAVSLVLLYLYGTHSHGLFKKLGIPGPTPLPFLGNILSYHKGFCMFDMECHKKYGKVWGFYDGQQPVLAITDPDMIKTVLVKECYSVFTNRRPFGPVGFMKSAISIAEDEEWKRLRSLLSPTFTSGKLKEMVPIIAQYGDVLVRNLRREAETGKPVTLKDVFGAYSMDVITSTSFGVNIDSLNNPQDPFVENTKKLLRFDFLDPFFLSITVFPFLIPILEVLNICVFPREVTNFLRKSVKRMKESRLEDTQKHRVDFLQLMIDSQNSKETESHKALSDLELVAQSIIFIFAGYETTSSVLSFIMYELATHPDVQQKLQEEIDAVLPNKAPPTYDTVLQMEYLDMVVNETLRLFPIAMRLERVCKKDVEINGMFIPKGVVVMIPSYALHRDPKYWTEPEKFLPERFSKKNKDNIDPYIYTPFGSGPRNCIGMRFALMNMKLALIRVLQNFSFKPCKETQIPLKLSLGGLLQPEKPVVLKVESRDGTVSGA
For series [15], the system named is spontaneously hypertensive rats (SHR). Put plainly: Antihypertensive efficacy in conscious SHR, oral dosing, radiotelemetry. The following applies: for Effect on mean arterial pressure (MAP): 14-day dosing period. The class given is in vivo, rat.
Series [16] is described as follows: Tissue distribution study in rats, radio labeled compound. Format: in vivo, rat. The following applies: radio labeled Example 1.
The subject of series [17] is rats. The following applies: rat, in vivo.
Series [18] has as its system rats. Put plainly: Central nervous system - rat, locomotor activity. The class given is in vivo. The following applies: oral, up to 300 mg/kg.
Excerpt: as §5
Series [19] concerns major human cytochrome P450 enzymes. In words: Inhibition of the major human cytochrome P450 enzymes. The class given is in vitro ADME.
In series [20] the target is T6, dog platelet-derived PDE5 (Canis lupus familiaris, UniProt O77746).
T6 construct: rat and dog platelet-derived PDE5; from tissue; host or cells: dog platelets
In words: PDE5 enzyme (dog platelet) inhibition. The class given is biochemical.

Series [21] can be described thus: Single-dose toxicity/toxicokinetic study of polymorph forms in dogs. The following applies: equivalent dose 100 mg/kg. The class given is in vivo.
Series [22] can be described thus: Single-dose toxicity/toxicokinetic study of polymorph forms in rats. The class given is in vivo. The following applies: equivalent doses 100 and 300 mg/kg.

Molecules are shown by their SMILES. Entries after “also recorded” stand apart in the source; their conditions may differ.

In general, half-life refers to the time needed for the level to fall by half in the phase considered. One may read the fraction unbound as free concentration divided by total concentration. By bioavailability is commonly meant the share of a dose that reaches the circulation, judged against a reference dose that is usually intravenous. In general, Cmax refers to the peak of the concentration-time curve. As a reminder, the IC50 is the concentration that inhibits the measured activity by half. In general, EC50 refers to the concentration needed to bring the measured effect to its halfway point.

T2 sequence (P10635 whole entry): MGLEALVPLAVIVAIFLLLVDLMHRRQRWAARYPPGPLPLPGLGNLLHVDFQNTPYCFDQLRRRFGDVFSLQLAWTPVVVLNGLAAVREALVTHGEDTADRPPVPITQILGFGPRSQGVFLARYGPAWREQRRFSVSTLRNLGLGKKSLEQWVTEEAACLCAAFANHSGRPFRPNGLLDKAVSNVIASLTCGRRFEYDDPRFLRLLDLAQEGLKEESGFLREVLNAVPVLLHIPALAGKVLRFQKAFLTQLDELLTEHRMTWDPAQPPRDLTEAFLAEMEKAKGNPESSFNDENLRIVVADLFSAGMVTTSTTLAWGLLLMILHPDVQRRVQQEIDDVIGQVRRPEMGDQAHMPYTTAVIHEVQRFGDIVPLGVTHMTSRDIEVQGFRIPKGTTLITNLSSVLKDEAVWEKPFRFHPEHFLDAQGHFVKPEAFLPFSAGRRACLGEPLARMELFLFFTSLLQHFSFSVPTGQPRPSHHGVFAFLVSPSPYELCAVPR
T4 sequence (P11712 whole entry): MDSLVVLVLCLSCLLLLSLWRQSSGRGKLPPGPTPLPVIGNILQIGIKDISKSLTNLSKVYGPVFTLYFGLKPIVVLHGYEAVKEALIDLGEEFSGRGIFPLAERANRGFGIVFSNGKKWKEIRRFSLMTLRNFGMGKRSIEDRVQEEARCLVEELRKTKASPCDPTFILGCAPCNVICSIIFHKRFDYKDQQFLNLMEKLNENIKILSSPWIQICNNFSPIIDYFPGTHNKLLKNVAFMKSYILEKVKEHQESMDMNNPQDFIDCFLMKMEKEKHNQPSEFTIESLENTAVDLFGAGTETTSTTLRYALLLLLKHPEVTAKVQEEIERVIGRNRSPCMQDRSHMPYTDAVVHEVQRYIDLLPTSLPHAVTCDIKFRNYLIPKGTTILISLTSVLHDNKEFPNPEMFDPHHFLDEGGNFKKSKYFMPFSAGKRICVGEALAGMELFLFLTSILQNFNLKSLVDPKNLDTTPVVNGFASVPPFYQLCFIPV
Sequence of human PDE11 (Q9HCR9 whole entry): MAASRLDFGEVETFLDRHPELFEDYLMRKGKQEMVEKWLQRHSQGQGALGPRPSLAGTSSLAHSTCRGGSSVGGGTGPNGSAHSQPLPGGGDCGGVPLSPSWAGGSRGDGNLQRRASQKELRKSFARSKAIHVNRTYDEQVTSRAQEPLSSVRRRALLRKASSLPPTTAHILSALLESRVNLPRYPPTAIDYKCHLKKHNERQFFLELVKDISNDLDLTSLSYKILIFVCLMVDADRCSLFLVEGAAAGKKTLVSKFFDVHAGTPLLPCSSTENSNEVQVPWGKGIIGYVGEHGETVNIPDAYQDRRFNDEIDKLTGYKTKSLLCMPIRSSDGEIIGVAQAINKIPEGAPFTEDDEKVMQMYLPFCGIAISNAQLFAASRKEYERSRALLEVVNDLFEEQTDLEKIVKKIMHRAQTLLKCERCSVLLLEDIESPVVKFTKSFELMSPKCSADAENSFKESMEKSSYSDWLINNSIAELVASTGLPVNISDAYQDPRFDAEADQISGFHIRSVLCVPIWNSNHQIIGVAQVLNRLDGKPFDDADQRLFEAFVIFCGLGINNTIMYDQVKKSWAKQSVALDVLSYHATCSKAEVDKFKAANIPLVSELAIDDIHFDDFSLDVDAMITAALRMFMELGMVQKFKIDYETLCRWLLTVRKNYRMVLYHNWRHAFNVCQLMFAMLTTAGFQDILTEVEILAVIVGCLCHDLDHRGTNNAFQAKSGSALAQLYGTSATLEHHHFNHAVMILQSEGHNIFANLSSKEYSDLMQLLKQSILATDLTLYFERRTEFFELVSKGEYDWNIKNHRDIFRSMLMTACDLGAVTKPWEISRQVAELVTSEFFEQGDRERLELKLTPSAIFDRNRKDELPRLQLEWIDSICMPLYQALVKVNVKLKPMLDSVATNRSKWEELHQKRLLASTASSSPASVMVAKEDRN

`CCCc1nn(C)c2c(=O)[nH]c(-c3cc(S(=O)(=O)N4CCN(C)CC4)ccc3OCC)nc12` [Sildenafil, sildenafil]: the Microalbuminuria / albuminuria result in series [1] is “reduces albuminuria”; in series [1] (listed as sildenafil citrate), “significantly decreased”. The compound further gave a half-life in “clinical” (Human Half-life) of 3.7 h.

As to `CCOCCn1nc(C(=O)NS(C)(=O)=O)c2nc(N(C)CC)nc(Nc3cc(C)ccn3)c21` [Example 1, 1-(2-ethoxyethyl)-5-(ethyl(methyl)amino)-7-((4-methylpyridin-2-yl)amino)-N-(methylsulfonyl)-1H-pyrazolo[4,3-d]pyrimidine-3-carboxamide], the Mutagenicity result in series [2] was “Negative”. The fraction unbound was 0.007 in the series “in vitro [3]”, 0.007 in the series “in vitro [10]”, 0.012 in the series “in vitro [13]” and 0.007 in the series “in vitro [14]”. For the same compound, the Steady-state distribution volume entry in “Pharmacokinetics in dogs” (dog) and in the series “Pharmacokinetics in rats” (rat) was “lower than total body water” throughout. For the same compound, the bioavailability is 77% in the series “Pharmacokinetics in dogs” (dog, plasma, po, dogs, single dose, read-out: Absolute oral bioavailability) and 82% in the series “Pharmacokinetics in rats” (rat, plasma, po, rats, single dose, read-out: Absolute oral bioavailability). For the same compound, the Cmax in “Pharmacokinetics in dogs” (dog, plasma, dogs, 5 mg/kg oral) was 12800 ng/mL; in “clinical” (30 mg) it was 1570 to 1630 ng/mL. The “Half-life (in words)” value in the series “Pharmacokinetics in dogs” (dogs) and in “Pharmacokinetics in rats” (rats) was “long half-life values” throughout. For the same compound, the “Oral bioavailability (in words)” value in the series “Pharmacokinetics in dogs” (dogs) and in “Pharmacokinetics in rats” (rats) was “high” each time. Besides, the “Dog Cmax as multiple of human Cmax” value in the series “Pharmacokinetics in dogs” (dogs 5 mg/kg versus humans 30 mg dose) is reported as around 8 times. Further, the Plasma clearance result is recorded as “low clearance; also recorded: lower that the liver-blood flow” in “Pharmacokinetics in dogs” (dogs, intravenous administration) and “low clearance; also recorded: lower that the liver-blood flow” in the series “Pharmacokinetics in rats” (rats, intravenous administration). For the same compound, in the series with rats [4], the “Effect on urine volume and electrolyte excretion” value is recorded as “dose-related decrease”. For the same compound, the IC50 in [5] was 28.9 nM; on human PDE11, 26.3 nM; in [6], 63.6 nM; on CYP2D6, above 30000 nM; at CYP1A2 it was above 30000 nM; against rat PDE5 it was 0.93 nM. Also, the IC50 on CYP2C9 was above 30000 nM; at CYP2C19 it was above 30000 nM; on CYP3A4, above 30000 nM; in series [20], 0.65 nM. Further, the half-life in “clinical” (Human Half-life) and in “clinical” (Terminal half-life) was 11.9 to 15.7 h each time. Besides, the “Effects on ECG parameters” value with dogs (dogs) was “not associated with any relevant effects”; with healthy male volunteers (humans, single and multiple doses), “No clinically-relevant effects”. The “Effect on blood pressure and left ventricular end-diastolic pressure” value in the series on dogs (dogs, 0.5, 1.5, and 5 mg/kg) is given as “small, but significant reductions”. Moreover, the “Effects in dog Purkinje fiber assay” value in the series on dog Purkinje fiber was “No relevant effects”. Besides, the “Administered dose (total radioactivity) eliminated in feces” value in series [7] and in [9] was “greater than 80%” each time. In addition, the “Time within which the majority of the radioactivity was recovered” value in series [7] and in series [9] was at most 48 h in each case. The Total radioactivity recovered entry in [7] and in [9] was “greater than 92%” each time. Further, in series [8], the “Clastogenicity in vitro, structural chromosome aberration result” value is recorded as “Negative”. Also, the “Changes in vital signs, ECGs, laboratory safety test results, or physical examination results” value in the series with healthy male volunteers (healthy male volunteers, any dose) is given as “No significant changes”. Moreover, in the series on healthy male volunteers (human, in vivo), the “Tolerability of multiple doses” value is listed as “well tolerated”. Also, the “Tolerability of single doses” value in the series with healthy male volunteers (human, in vivo, po) was “well tolerated”. In addition, the Maximum non-lethal dose in the series with mice and with rats [17] (14 days) was 2000 mg/kg in each case. Also, the “Effects on pulmonary function” value in the series on rats [11] is “no adverse effects”. In addition, the “Micronucleus assay in rat bone marrow result” value in the series on Rat Bone Marrow is reported as “Negative”. Moreover, the EC50 in [12] was 3.1 nM. The “Effect on mean arterial pressure (MAP)” value in [15] is given as “significant, sustained reduction in MAP”. Moreover, the “Effect on MAP in combination” value in series [15] (combined with an ACE inhibitor) is “greater MAP lowering effects than the ACE inhibitor alone”. In series [15] (daily oral dosing), the “Free plasma concentration giving significant MAP reduction, as multiple of rat PDE5 IC50” value is recorded as “approximately 7 fold”. Also, the “ECmax (maximally efficacious concentration)” value in series [15] (oral dosing, unbound plasma concentration) is on record as “ECmax = 6.5 nM”. In addition, in series [16], the Tissue distribution result is listed as “systemic distribution was generally in proportion to tissue-blood flow”. Besides, the “Single dose toxicity findings” value in the series with rats [17] is reported as “No toxicity was observed”. Further, in the series on rats [18], the “Effects on locomotor activity” value was “minor, nondose-related effects consisting of decreased rearing and center rearing”. Moreover, the “Inhibition of the major human cytochrome P450 enzymes” value in series [19] is on record as “no significant inhibition”.

`CCOC(=O)[C@H](CCc1ccccc1)N[C@@H](C)C(=O)N1CCC[C@H]1C(=O)O` [enalapril, reference compound]: the “Effect on mean arterial pressure (MAP)” value in series [15] is given as “significant, sustained reduction in MAP”.

Regarding `CCOCCn1nc(C(=O)NS(C)(=O)=O)c2nc(N(C)CC)nc(Nc3cc(C)ccn3)c21` [Example 1 (polymorph form C), 1-(2-ethoxyethyl)-5-(ethyl(methyl)amino)-7-((4-methylpyridin-2-yl)amino)-N-(methylsulfonyl)-1H-pyrazolo[4,3-d]pyrimidine-3-carboxamide], the “Systemic exposure, polymorph form C versus form B” value in series [21] and in series [22] was “no differences in systemic exposure” throughout.
